According to the supplement of paper PMC10307832:

Key:
Experiment in all cases: relative viability (nuclei count vs DMSO), 5 days (fraction); higher = more cells survive
Quizartinib + Dasatinib = compound: CC(C)(C)c1cc(NC(=O)Nc2ccc(-c3cn4c(n3)sc3cc(OCCN5CCOCC5)ccc34)cc2)no1 [Quizartinib] + Cc1nc(Nc2ncc(C(=O)Nc3c(C)cccc3Cl)s2)cc(N2CCN(CCO)CC2)n1 [Dasatinib] (partner 0.075 µM)
Summary of the method: (§1)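 Relative viability equals treated-well nuclei counts divided by vehicle-well nuclei counts. Counts came from 4× images of lung cancer cell lines grown in 1536-well plates for 5 days after pin-tool dosing on the day after seeding. Dosing used one drug alone or a fixed anchor-drug dose plus five library-drug doses (not always all listed) in √10 steps, and values are medians of duplicate plates.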

YM155 + Bortezomib = compound: COCC[n+]1c2c(n(Cc3cnccn3)c1C)C(=O)c1ccccc1C2=O [YM155] + CC(C)C[C@H](NC(=O)[C@H](Cc1ccccc1)NC(=O)c1cnccn1)B(O)O [Bortezomib] (partner 0.002 µM)
Summary of the method: as §1

YM155 + Tozasertib = compound: COCC[n+]1c2c(n(Cc3cnccn3)c1C)C(=O)c1ccccc1C2=O [YM155] + Cc1cc(Nc2cc(N3CCN(C)CC3)nc(Sc3ccc(NC(=O)C4CC4)cc3)n2)n[nH]1 [Tozasertib] (partner 0.1 µM)
Summary of the method: as §1

YM155 + Pemetrexed = compound: COCC[n+]1c2c(n(Cc3cnccn3)c1C)C(=O)c1ccccc1C2=O [YM155] + Nc1nc2[nH]cc(CCc3ccc(C(=O)N[C@@H](CCC(=O)O)C(=O)O)cc3)c2c(=O)[nH]1 [Pemetrexed] (partner 0.2 µM)
Summary of the method: as §1

Row | Cell Line | relative viability (Quizartinib + Dasatinib; first compound 0.001 µM) | relative viability (Quizartinib + Dasatinib; first compound 0.003162 µM) | relative viability (Quizartinib + Dasatinib; first compound 0.01 µM) | relative viability (Quizartinib + Dasatinib; first compound 0.03162 µM) | relative viability (Quizartinib + Dasatinib; first compound 0.1 µM) | relative viability (YM155 + Bortezomib; first compound 0.002 µM) | relative viability (YM155 + Bortezomib; first compound 0.006325 µM) | relative viability (YM155 + Bortezomib; first compound 0.02 µM) | relative viability (YM155 + Bortezomib; first compound 0.06325 µM) | relative viability (YM155 + Tozasertib; first compound 0.002 µM) | relative viability (YM155 + Tozasertib; first compound 0.006325 µM) | relative viability (YM155 + Tozasertib; first compound 0.02 µM) | relative viability (YM155 + Tozasertib; first compound 0.06325 µM) | relative viability (YM155 + Pemetrexed; first compound 0.002 µM) | relative viability (YM155 + Pemetrexed; first compound 0.006325 µM) | relative viability (YM155 + Pemetrexed; first compound 0.02 µM) | relative viability (YM155 + Pemetrexed; first compound 0.06325 µM)
1 | LCLC-103H | 0.461 | 0.454 | 0.402 | 0.557 | 0.487 | 1.01 | 1.06 | 1.17 | 1.1 | 0.569 | 0.454 | 0.464 | 0.487 | 0.473 | 0.453 | 0.416 | 0.463
2 | LOU-NH91 | 0.574 | 0.615 | 0.553 | 0.524 | 0.62 | 0.704 | 0.521 | 0.487 | 0.555 | 0.667 | 0.665 | 0.712 | 0.603 | 0.361 | 0.356 | 0.346 | 0.343
3 | LU99A | 0.419 | 0.592 | 0.523 | 0.467 | 0.135 | 1.17 | 1.11 | 1.16 | 0.965 | 0.26 | 0.255 | 0.318 | 0.265 | 0.164 | 0.2 | 0.153 | 0.177
4 | LXF-289 | 0.218 | 0.21 | 0.29 | 0.254 | 0.29 | 0.944 | 0.93 | 0.989 | 1.02 | 0.186 | 0.214 | 0.205 | 0.183 | 0.855 | 0.914 | 0.827 | 0.783
5 | NCI-H23 |  | 0.733 | 0.696 | 0.712 | 0.853 | 0.7 | 1.05 | 0.929 | 0.455 | 0.373 | 0.345 | 0.53 | 0.286 |  | 0.655 | 0.646 | 0.549
6 | NCI-H322M | 0.208 | 0.255 | 0.27 | 0.265 | 0.266 | 1.22 | 1.18 | 1.19 | 1.37 | 0.461 | 0.496 | 0.504 | 0.46 | 0.504 | 0.613 | 0.576 | 0.622
7 | NCI-H441 | 0.617 | 0.571 | 0.765 |  | 0.771 | 0.452 | 0.407 | 0.466 | 0.446 | 0.559 | 0.63 | 0.645 | 0.467 | 0.249 | 0.267 | 0.293 | 0.198
8 | NCI-H460 | 0.481 | 0.551 | 0.413 | 0.307 | 0.422 | 0.991 | 1.24 | 1.19 | 1.04 | 0.604 | 0.468 | 0.535 | 0.413 | 0.072 | 0.0667 | 0.0671 | 0.0598
9 | NCI-H520 | 0.169 | 0.192 | 0.244 | 0.198 | 0.171 | 0.586 | 0.62 | 0.653 | 1 | 0.432 | 0.496 | 0.48 | 0.377 | 0.534 | 0.74 | 0.685 | 0.694
10 | NCI-H596 | 0.658 | 0.546 | 0.578 | 0.592 | 0.495 |  | 1.18 | 0.946 | 1.19 | 0.847 | 0.811 | 0.953 | 1.03 | 0.429 | 0.485 | 0.532 | 0.499
11 | NCI-H647 | 0.173 | 0.181 | 0.178 | 0.199 | 0.185 | 0.777 | 1 | 0.826 | 0.792 | 0.317 | 0.302 | 0.401 | 0.303 | 0.189 | 0.171 | 0.173 | 0.164
12 | NCI-H650 | 0.484 | 0.524 | 0.391 | 0.415 | 0.506 | 1.02 | 0.771 | 1.08 | 0.871 | 0.742 | 0.686 | 0.764 | 0.646 | 0.834 | 0.744 | 0.966 | 1.08
13 | NCI-H661 | 0.756 | 0.896 | 1.09 | 0.837 | 0.887 | 0.894 | 0.983 | 0.835 | 0.848 | 0.376 | 0.358 | 0.369 | 0.285 | 0.935 | 0.961 | 0.919 | 0.485
14 | NCI-H838 | 0.272 | 0.329 | 0.276 | 0.296 | 0.257 | 0.94 | 1.01 | 0.958 | 0.817 | 0.252 | 0.275 | 0.252 | 0.19 | 0.276 | 0.232 | 0.225 | 0.216
15 | NCI-H1355 | 0.719 | 0.762 | 0.684 | 0.747 | 0.66 | 1.11 | 1.27 | 1.25 | 1.22 | 0.617 | 0.518 | 0.654 | 0.597 | 0.979 | 1.07 | 1.04 | 0.997
16 | NCI-H1437 | 0.375 | 0.467 | 0.384 | 0.27 | 0.363 | 0.501 | 0.501 | 0.516 | 0.519 | 0.421 | 0.416 | 0.455 | 0.276 | 0.297 | 0.305 | 0.33 | 0.234
17 | NCI-H1650 | 0.283 | 0.328 | 0.298 |  | 0.245 | 0.216 | 0.23 | 0.221 | 0.19 | 0.33 | 0.468 | 0.485 | 0.266 | 0.35 | 0.348 | 0.321 | 0.249
18 | NCI-H1651 | 0.306 | 0.429 | 0.392 | 0.296 | 0.441 | 0.937 | 0.946 | 0.897 | 0.961 | 0.641 | 0.686 | 0.685 | 0.33 | 0.598 | 0.599 | 0.6 | 0.615
19 | NCI-H1666 | 0.836 | 0.782 | 0.737 | 0.582 | 0.757 | 0.644 |  | 0.815 | 0.718 | 0.629 | 0.646 | 0.686 | 0.664 | 0.837 | 0.881 | 0.854 | 0.868
